Measurements reported in patent publication US9592221B2, “Antibacterial agents: aryl myxopyronin derivatives” (priority 2012, dated 2017).

Assays:
[1] = tested on: Burkholderia pseudomallei Human/Blood/OH/US/1994; experiment: microbe, parasite or virus in culture; format: cell-based; conditions: Burkholderia pseudomallei, read-out: MIC B. pseudomallei Human/Blood/OH
[2] = molecular target: E. coli RNA polymerase σ^70 holoenzyme (Escherichia coli, UniProt P0A8T7+P0A8V2); experiment: Fluorescence-detected RNA polymerase assay, E. coli RNA polymerase; format: biochemical; conditions: read-out: IC50 E. coli RNAP
E. coli RNA polymerase σ^70 holoenzyme, sequence (P0A8T7 whole entry): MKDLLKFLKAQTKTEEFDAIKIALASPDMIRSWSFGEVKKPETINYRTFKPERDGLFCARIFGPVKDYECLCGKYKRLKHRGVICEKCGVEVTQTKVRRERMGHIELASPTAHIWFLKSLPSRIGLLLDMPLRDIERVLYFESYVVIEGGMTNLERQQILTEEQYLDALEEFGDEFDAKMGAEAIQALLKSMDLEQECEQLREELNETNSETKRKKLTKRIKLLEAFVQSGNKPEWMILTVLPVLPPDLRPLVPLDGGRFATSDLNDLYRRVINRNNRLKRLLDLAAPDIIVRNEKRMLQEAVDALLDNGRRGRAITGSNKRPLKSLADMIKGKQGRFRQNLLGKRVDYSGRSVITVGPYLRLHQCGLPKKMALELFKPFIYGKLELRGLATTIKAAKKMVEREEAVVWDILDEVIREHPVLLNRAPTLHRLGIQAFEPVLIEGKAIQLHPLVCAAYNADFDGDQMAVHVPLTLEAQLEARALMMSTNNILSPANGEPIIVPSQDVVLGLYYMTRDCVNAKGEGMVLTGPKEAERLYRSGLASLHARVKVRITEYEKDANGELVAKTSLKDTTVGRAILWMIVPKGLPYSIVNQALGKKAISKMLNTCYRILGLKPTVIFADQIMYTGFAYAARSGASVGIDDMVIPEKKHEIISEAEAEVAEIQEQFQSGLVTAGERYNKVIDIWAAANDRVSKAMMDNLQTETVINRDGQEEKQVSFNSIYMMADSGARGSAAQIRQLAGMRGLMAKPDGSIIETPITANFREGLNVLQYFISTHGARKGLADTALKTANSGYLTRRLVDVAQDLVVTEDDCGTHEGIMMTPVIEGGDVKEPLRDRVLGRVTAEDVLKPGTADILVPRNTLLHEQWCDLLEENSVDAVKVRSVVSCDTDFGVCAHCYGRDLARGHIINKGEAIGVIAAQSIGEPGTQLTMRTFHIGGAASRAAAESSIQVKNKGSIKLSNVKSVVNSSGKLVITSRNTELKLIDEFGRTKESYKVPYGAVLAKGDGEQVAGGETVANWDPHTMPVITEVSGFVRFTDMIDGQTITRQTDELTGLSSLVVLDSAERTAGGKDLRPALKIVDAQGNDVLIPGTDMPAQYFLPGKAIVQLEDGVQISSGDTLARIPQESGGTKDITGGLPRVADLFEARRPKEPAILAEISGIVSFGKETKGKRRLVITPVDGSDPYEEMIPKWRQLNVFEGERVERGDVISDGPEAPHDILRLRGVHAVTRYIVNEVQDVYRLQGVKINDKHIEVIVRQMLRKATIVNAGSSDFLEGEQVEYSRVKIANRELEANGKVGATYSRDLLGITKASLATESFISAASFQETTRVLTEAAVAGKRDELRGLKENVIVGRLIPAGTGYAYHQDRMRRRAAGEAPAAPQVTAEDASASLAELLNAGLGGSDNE
E. coli RNA polymerase σ^70 holoenzyme, sequence (P0A800 whole entry, further chain): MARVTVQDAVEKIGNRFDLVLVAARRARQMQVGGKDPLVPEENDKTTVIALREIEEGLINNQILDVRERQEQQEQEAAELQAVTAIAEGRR
E. coli RNA polymerase σ^70 holoenzyme, sequence (P0A8V2 whole entry): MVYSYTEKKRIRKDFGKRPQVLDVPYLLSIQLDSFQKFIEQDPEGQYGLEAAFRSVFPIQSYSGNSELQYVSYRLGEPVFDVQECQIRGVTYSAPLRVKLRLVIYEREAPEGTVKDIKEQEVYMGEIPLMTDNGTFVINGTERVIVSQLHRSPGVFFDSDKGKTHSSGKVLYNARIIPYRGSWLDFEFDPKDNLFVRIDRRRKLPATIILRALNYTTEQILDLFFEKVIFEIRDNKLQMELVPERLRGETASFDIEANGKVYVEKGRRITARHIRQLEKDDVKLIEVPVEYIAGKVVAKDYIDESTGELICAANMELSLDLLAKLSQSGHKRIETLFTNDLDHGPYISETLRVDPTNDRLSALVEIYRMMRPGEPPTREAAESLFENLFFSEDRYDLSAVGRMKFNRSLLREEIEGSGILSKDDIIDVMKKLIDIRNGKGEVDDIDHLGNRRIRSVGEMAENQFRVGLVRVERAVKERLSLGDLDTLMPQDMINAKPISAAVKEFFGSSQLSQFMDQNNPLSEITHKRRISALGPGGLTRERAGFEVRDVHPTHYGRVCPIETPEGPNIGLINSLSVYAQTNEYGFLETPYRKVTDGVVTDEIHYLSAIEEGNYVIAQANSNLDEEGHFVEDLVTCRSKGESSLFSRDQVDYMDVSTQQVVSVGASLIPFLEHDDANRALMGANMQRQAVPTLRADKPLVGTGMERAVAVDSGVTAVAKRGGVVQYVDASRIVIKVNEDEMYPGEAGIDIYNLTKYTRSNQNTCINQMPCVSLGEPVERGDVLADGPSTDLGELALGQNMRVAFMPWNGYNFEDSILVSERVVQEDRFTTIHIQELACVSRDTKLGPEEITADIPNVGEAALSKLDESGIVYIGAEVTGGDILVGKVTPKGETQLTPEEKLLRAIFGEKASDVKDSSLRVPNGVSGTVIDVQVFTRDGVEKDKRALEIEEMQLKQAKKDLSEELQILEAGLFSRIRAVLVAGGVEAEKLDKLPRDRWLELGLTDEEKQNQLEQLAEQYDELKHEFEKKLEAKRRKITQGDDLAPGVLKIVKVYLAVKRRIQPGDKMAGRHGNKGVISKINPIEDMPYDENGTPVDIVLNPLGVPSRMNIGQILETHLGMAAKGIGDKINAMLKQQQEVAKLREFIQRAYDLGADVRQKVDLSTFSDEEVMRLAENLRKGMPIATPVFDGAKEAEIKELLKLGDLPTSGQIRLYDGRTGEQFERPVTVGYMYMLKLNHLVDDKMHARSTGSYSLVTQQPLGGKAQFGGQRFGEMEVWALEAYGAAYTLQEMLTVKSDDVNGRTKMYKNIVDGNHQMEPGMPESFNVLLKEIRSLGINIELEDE
E. coli RNA polymerase σ^70 holoenzyme, sequence (P00579 whole entry, further chain): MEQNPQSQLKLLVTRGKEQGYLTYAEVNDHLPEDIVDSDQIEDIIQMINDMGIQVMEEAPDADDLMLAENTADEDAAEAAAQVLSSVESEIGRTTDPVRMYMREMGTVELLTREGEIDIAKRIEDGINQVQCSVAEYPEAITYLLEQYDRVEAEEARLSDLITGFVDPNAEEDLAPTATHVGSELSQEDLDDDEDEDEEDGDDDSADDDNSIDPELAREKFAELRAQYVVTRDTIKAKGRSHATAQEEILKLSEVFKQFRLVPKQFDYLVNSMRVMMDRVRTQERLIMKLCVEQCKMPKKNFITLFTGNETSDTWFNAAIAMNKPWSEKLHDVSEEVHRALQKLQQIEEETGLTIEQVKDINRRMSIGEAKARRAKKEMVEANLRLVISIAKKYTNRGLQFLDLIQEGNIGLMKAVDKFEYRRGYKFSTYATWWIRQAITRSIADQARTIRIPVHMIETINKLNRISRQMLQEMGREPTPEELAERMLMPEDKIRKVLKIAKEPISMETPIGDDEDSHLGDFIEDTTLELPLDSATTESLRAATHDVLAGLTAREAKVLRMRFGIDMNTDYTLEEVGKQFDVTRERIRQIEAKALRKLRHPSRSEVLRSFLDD
E. coli RNA polymerase σ^70 holoenzyme, sequence (P0A7Z4 whole entry, further chain): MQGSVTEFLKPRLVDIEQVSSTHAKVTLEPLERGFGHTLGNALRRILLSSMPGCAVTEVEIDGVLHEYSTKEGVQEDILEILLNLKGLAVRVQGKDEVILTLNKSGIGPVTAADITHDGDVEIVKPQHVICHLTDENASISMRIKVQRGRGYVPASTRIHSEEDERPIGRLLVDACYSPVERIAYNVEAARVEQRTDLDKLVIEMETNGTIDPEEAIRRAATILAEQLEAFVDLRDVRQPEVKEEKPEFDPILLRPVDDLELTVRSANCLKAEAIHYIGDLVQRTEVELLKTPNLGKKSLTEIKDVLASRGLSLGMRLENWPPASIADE

Brucella melitensis 16M = experiment: microbe, parasite or virus in culture; format: cell-based; conditions: Brucella melitensis, 16M, read-out: MIC B. melitensis 16M
[3] = tested on: Acinetobacter baumannii ATCC 19606; experiment: MIC, spiral gradient endpoint assay, A. baumannii; format: cell-based; conditions: ATCC19606; Acinetobacter baumannii ATCC 19606
[4] = tested on: Mycobacterium tuberculosis H37Rv; experiment: MIC, microplate Alamar Blue assay, M. tuberculosis; format: cell-based
[5] = tested on: Staphylococcus aureus ATCC 12600; experiment: MIC, spiral gradient endpoint assay, S. aureus ATCC 12600; format: cell-based; conditions: ATCC12600; Staphylococcus aureus ATCC 12600
[6] = tested on: Escherichia coli D21f2tolC; experiment: MIC, spiral gradient endpoint assay, E. coli D21f2tolC; format: cell-based; conditions: Escherichia coli, D21F2TOLC, read-out: MIC E. coli D21f2toIC
Burkholderia mallei CHN7 = experiment: microbe, parasite or virus in culture; format: cell-based; conditions: Burkholderia mallei, CHN7, read-out: MIC B. mallei CHN7
Yersinia pestis C092 = experiment: microbe, parasite or virus in culture; format: cell-based; conditions: Yersinia pestis, C092, read-out: MIC Y. pestis C092
[7] = tested on: Francisella tularensis SCHU4; experiment: microbe, parasite or virus in culture; format: cell-based; conditions: Francisella tularensis, SCHU4, read-out: MIC F. tularensis SCHU4
[8] = tested on: Bacillus anthracis Vollum 1b; experiment: microbe, parasite or virus in culture; format: cell-based; conditions: Bacillus anthracis, VOLLUM1B, read-out: MIC B. anthracis Vollum-1b

CCCCc1ccc(C=CC(=O)c2c(O)cc(C(C)CC/C=C/NC(=O)OC)oc2=O)s1 (mixture of isomers) [APY36, methyl (E)-5-(3-((E/Z)-3-(5-butylthiophen-2-yl)acryloyl)-4-hydroxy-2-oxo-2H-pyran-6-yl)hex-1-enylcarbamate]
MIC [1]: > 50 µg/mL | IC50 [2]: 300 nM | MIC (Brucella melitensis 16M): > 50 µg/mL | MIC [3]: > 40 µg/mL | MIC [4]: 30 µg/mL | MIC [5]: > 40 µg/mL | MIC [6]: 0.7 µg/mL | MIC (Burkholderia mallei CHN7): > 50 µg/mL | MIC (Yersinia pestis C092): > 50 µg/mL | MIC [7]: 6 µg/mL | MIC [8]: 6 µg/mL

CCCCCCc1ccc(C=C(C)C(=O)c2c(O)cc(C(C)CC/C=C/NC(=O)OC)oc2=O)cn1 (mixture of isomers) [APY37, methyl (E)-5-(3-((E/Z)-3-(6-hexylpyridin-3-yl)-2-methylacryloyl)-4-hydroxy-2-oxo-2H-pyran-6-yl)hex-1-enylcarbamate]
MIC [1]: > 50 µg/mL | IC50 [2]: 90 nM | MIC (Brucella melitensis 16M): 10 µg/mL | MIC [3]: > 40 µg/mL | MIC [4]: > 50 µg/mL | MIC [5]: > 40 µg/mL | MIC [6]: 0.6 µg/mL | MIC (Burkholderia mallei CHN7): 50 µg/mL | MIC (Yersinia pestis C092): > 50 µg/mL | MIC [7]: 50 µg/mL | MIC [8]: 50 µg/mL

CCCCOc1ccc(C=C(C)C(=O)c2c(O)cc(C(C)CC/C=C/NC(=O)OC)oc2=O)cc1 (mixture of isomers) [APY39, methyl (E)-5-(3-((E/Z)-3-(4-butoxyphenyl)-2-methylacryloyl)-4-hydroxy-2-oxo-2H-pyran-6-yl)hex-1-enylcarbamate]
MIC [1]: 50 µg/mL | IC50 [2]: 80 nM | MIC (Brucella melitensis 16M): 0.4 µg/mL | MIC [3]: > 40 µg/mL | MIC [4]: 3 µg/mL | MIC [5]: 1 µg/mL | MIC [6]: 0.2 µg/mL | MIC (Burkholderia mallei CHN7): 10 µg/mL | MIC (Yersinia pestis C092): 30 µg/mL | MIC [7]: 30 µg/mL | MIC [8]: 3 µg/mL

CCCOc1ccc(C=C(C)C(=O)c2c(O)cc(C(C)CC/C=C/NC(=O)OC)oc2=O)cc1 (mixture of isomers) [APY40, methyl (E)-5-(4-hydroxy-3-((E/Z)-2-methyl-3-(4-propoxyphenyl)acryloyl)-2-oxo-2H-pyran-6-yl)hex-1-enylcarbamate]
MIC [1]: > 50 µg/mL | IC50 [2]: 10 nM | MIC (Brucella melitensis 16M): 3 µg/mL | MIC [3]: 9 µg/mL | MIC [4]: 6 µg/mL | MIC [5]: 1 µg/mL | MIC [6]: 0.4 µg/mL | MIC (Burkholderia mallei CHN7): > 50 µg/mL | MIC (Yersinia pestis C092): > 50 µg/mL | MIC [7]: > 50 µg/mL | MIC [8]: 10 µg/mL

CCCCOc1cccc(C=C(C)C(=O)c2c(O)cc(C(C)CC/C=C/NC(=O)OC)oc2=O)c1 (mixture of isomers) [APY42, methyl (E)-5-(3-((E/Z)-3-(3-butoxyphenyl)-2-methylacryloyl)-4-hydroxy-2-oxo-2H-pyran-6-yl)hex-1-enylcarbamate]
MIC [1]: 50 µg/mL | IC50 [2]: 30 nM | MIC (Brucella melitensis 16M): 6 µg/mL | MIC [3]: > 40 µg/mL | MIC [4]: 30 µg/mL | MIC [5]: > 40 µg/mL | MIC [6]: 0.4 µg/mL | MIC (Burkholderia mallei CHN7): 50 µg/mL | MIC (Yersinia pestis C092): > 50 µg/mL | MIC [7]: 50 µg/mL | MIC [8]: 10 µg/mL

CCCOc1cccc(C=C(C)C(=O)c2c(O)cc(C(C)CC/C=C/NC(=O)OC)oc2=O)c1 (mixture of isomers) [APY43, methyl (E)-5-(4-hydroxy-3-((E/Z)-2-methyl-3-(3-propoxyphenyl)acryloyl)-2-oxo-2H-pyran-6-yl)hex-1-enylcarbamate]
MIC [1]: 50 µg/mL | IC50 [2]: 200 nM | MIC (Brucella melitensis 16M): 3 µg/mL | MIC [3]: > 40 µg/mL | MIC [4]: 6 µg/mL | MIC [5]: > 40 µg/mL | MIC [6]: 0.4 µg/mL | MIC (Burkholderia mallei CHN7): 50 µg/mL | MIC (Yersinia pestis C092): > 50 µg/mL | MIC [7]: 30 µg/mL | MIC [8]: 10 µg/mL

COC(=O)N/C=C/CCC(C)c1cc(O)c(C(=O)C(C)=Cc2cccc(OCCC(C)(C)C)c2)c(=O)o1 (mixture of isomers) [APY49, methyl (E)-5-(3-((E/Z)-3-(3-(3,3-dimethylbutoxy)phenyl)-2-methylacryloyl)-4-hydroxy-2-oxo-2H-pyran-6-yl)hex-1-enylcarbamate]
MIC [1]: > 50 µg/mL | IC50 [2]: 10 nM | MIC (Brucella melitensis 16M): 10 µg/mL | MIC [3]: > 40 µg/mL | MIC [4]: 50 µg/mL | MIC [5]: > 40 µg/mL | MIC [6]: 0.3 µg/mL | MIC (Burkholderia mallei CHN7): 50 µg/mL | MIC (Yersinia pestis C092): > 50 µg/mL | MIC [7]: 30 µg/mL | MIC [8]: 10 µg/mL

COC(=O)N/C=C/CCC(C)c1cc(O)c(C(=O)C(C)=Cc2ccc(OCC(F)(F)F)cc2)c(=O)o1 (mixture of isomers) [APY117, methyl ((1E)-5-(4-hydroxy-3-(2-methyl-3-(4-(2,2,2-trifluoroethoxy)phenyl)acryloyl)-2-oxo-2H-pyran-6-yl)hex-1-en-1-yl)carbamate]
MIC [1]: > 50 µg/mL | IC50 [2]: 100 nM | MIC (Brucella melitensis 16M): 10 µg/mL | MIC [3]: > 40 µg/mL | MIC [4]: 10 µg/mL | MIC [5]: 2 µg/mL | MIC [6]: 0.4 µg/mL | MIC (Burkholderia mallei CHN7): 50 µg/mL | MIC (Yersinia pestis C092): 50 µg/mL | MIC [7]: > 50 µg/mL | MIC [8]: 10 µg/mL

COC(=O)N/C=C/CCC(C)c1cc(O)c(C(=O)C(C)=Cc2ccc(Oc3ccc(C(F)(F)F)cc3)s2)c(=O)o1 (mixture of isomers) [APY119, methyl ((1E)-5-(4-hydroxy-3-(2-methyl-3-(5-(4-(trifluoromethyl)phenoxy)thiophen-2-yl)acryloyl)-2-oxo-2H-pyran-6-yl)hex-1-en-1-yl)carbamate]
MIC [1]: 6 µg/mL | IC50 [2]: 6 nM | MIC (Brucella melitensis 16M): 3 µg/mL | MIC [3]: > 40 µg/mL | MIC [4]: > 50 µg/mL | MIC [5]: 2 µg/mL | MIC [6]: 0.1 µg/mL | MIC (Burkholderia mallei CHN7): 3 µg/mL | MIC (Yersinia pestis C092): 3 µg/mL | MIC [7]: 50 µg/mL | MIC [8]: 0.8 µg/mL

COC(=O)N/C=C/CCC(C)c1cc(O)c(C(=O)C(C)=Cc2cc(Br)c(CC(C)C)s2)c(=O)o1 (mixture of isomers) [APY120, methyl ((1E)-5-(3-(3-(4-bromo-5-isobutylthiophen-2-yl)-2-methylacryloyl)-4-hydroxy-2-oxo-2H-pyran-6-yl)hex-1-en-1-yl)carbamate]
MIC [1]: 10 µg/mL | IC50 [2]: 20 nM | MIC (Brucella melitensis 16M): 3 µg/mL | MIC [3]: 30 µg/mL | MIC [4]: > 50 µg/mL | MIC [5]: 1 µg/mL | MIC [6]: 0.2 µg/mL | MIC (Burkholderia mallei CHN7): 6 µg/mL | MIC (Yersinia pestis C092): 6 µg/mL | MIC [7]: 50 µg/mL | MIC [8]: 2 µg/mL

CCCOc1ccc2c(c1)cc(C=C(C)C(=O)c1c(O)cc(C(C)CC/C=C/NC(=O)OC)oc1=O)n2C (mixture of isomers) [APY121, methyl ((1E)-5-(4-hydroxy-3-(2-methyl-3-(1-methyl-5-propoxy-1H-indol-2-yl)acryloyl)-2-oxo-2H-pyran-6-yl)hex-1-en-1-yl)carbamate]
MIC [1]: > 50 µg/mL | IC50 [2]: 500 nM | MIC (Brucella melitensis 16M): > 50 µg/mL | MIC [3]: > 40 µg/mL | MIC [4]: > 50 µg/mL | MIC [5]: > 40 µg/mL | MIC [6]: 0.8 µg/mL | MIC (Burkholderia mallei CHN7): > 50 µg/mL | MIC (Yersinia pestis C092): > 50 µg/mL | MIC [7]: > 50 µg/mL | MIC [8]: > 50 µg/mL

COC(=O)N/C=C/CCC(C)c1cc(O)c(C(=O)C(C)=Cc2cc3cc(OC(C)C)ccc3n2C)c(=O)o1 (mixture of isomers) [APY123]
MIC [1]: > 50 µg/mL | IC50 [2]: 500 nM | MIC (Brucella melitensis 16M): > 50 µg/mL | MIC [3]: > 40 µg/mL | MIC [4]: > 50 µg/mL | MIC [5]: > 40 µg/mL | MIC [6]: 2 µg/mL | MIC (Burkholderia mallei CHN7): > 50 µg/mL | MIC (Yersinia pestis C092): > 50 µg/mL | MIC [7]: > 50 µg/mL | MIC [8]: > 50 µg/mL

COC(=O)N/C=C/CCC(C)c1cc(O)c(C(=O)C(C)=Cc2sc(CC(C)C)cc2Br)c(=O)o1 (mixture of isomers) [APY124, methyl ((1E)-5-(3-(3-(3-bromo-5-isobutylthiophen-2-yl)-2-methylacryloyl)-4-hydroxy-2-oxo-2H-pyran-6-yl)hex-1-en-1-yl)carbamate]
MIC [1]: 30 µg/mL | IC50 [2]: 4 nM | MIC (Brucella melitensis 16M): 10 µg/mL | MIC [3]: 6 µg/mL | MIC [4]: 50 µg/mL | MIC [5]: 0.9 µg/mL | MIC [6]: 0.3 µg/mL | MIC (Burkholderia mallei CHN7): 10 µg/mL | MIC (Yersinia pestis C092): 6 µg/mL | MIC [7]: 6 µg/mL | MIC [8]: 0.2 µg/mL

COC(=O)N/C=C/CCC(C)c1cc(O)c(C(=O)C(C)=Cc2ccc(CC3CC3)s2)c(=O)o1 (mixture of isomers) [APY125, methyl ((1E)-5-(3-(3-(5-(cyclopropylmethyl)thiophen-2-yl)-2-methylacryloyl)-4-hydroxy-2-oxo-2H-pyran-6-yl)hex-1-en-1-yl)carbamate]
MIC [1]: 50 µg/mL | IC50 [2]: 40 nM | MIC (Brucella melitensis 16M): 6 µg/mL | MIC [3]: 20 µg/mL | MIC [4]: 10 µg/mL | MIC [5]: 1 µg/mL | MIC [6]: 0.6 µg/mL | MIC (Burkholderia mallei CHN7): 10 µg/mL | MIC (Yersinia pestis C092): 6 µg/mL | MIC [7]: > 50 µg/mL | MIC [8]: 6 µg/mL

COC(=O)N/C=C/CCC(C)c1cc(O)c(C(=O)C(C)=Cc2ccc(OCCC(F)(F)F)cc2)c(=O)o1 (mixture of isomers) [APY126, methyl ((1E)-5-(4-hydroxy-3-(2-methyl-3-(4-(3,3,3-trifluoropropoxy)phenyl)acryloyl)-2-oxo-2H-pyran-6-yl)hex-1-en-1-yl)carbamate]
MIC [1]: > 50 µg/mL | IC50 [2]: 80 nM | MIC (Brucella melitensis 16M): 10 µg/mL | MIC [3]: > 40 µg/mL | MIC [4]: 6 µg/mL | MIC [5]: 1 µg/mL | MIC [6]: 0.3 µg/mL | MIC (Burkholderia mallei CHN7): 50 µg/mL | MIC (Yersinia pestis C092): 30 µg/mL | MIC [7]: > 50 µg/mL | MIC [8]: 3 µg/mL
